Reference: patent US12163953B2, “P-phenylene ethynylene compounds as bioactive and detection agents” (STC.UNM, priority 2014, dated 2024)

Key:
HEWL amyloid fibrils = target: T1, HEWL amyloid fibrils (Gallus gallus, UniProt P00698); assay: Induced circular dichroism of PE-amyloid complexes; type: binding, hen; conditions: PEs 10 μM, HEWL 10 μM monomer basis
T1 construct: Lyophilized HEWL was dissolved at 10 mg/mL in 10 mM pH 3 sodium citrate buffer with 0.1 M NaCl; purchased Sigma-Aldrich; host or cells: hen egg white; fibrillised in house (pH 3, 70 °C, stirred)
Method: Circular dichroism measurements were performed to determine if the intrinsic chirality of the HEWL fibrils was transferred to the PE chromophore by a chiral backbone twist or an “excitonic” chiral supramolecular aggregate. CD spectroscopy (CPEs in PB with HEWL monomer and with HEWL amyloid; performed for (a): PE1+; (b): PE1−; (c): PE2+; (d): PE3+; PEs 10 μM, HEWL 10 μM monomer basis/0.5 mg/mL) indicated induced circular dichroism of PEs when bound to HEWL amyloids. As expected, no PE had optical activity by itself in phosphate buffer solution and none of the PEs had any CD with HEWL monomer, including PE1−. […] PE2+ and PE3+ gave rise to similar CD spectra, with more intense bands in the spectrum for PE3+.
PEs and protein samples were diluted in phosphate buffer, gently vortexed, and read in a 1 mm pathlength quartz CD cuvette using an Aviv 410 CD spectrometer (Aviv Biomedical, Lakewood, NJ), 15 s averaging time. A blank spectrum (PB only) was subtracted from each sample to remove background activity. Error bars are standard deviation over multiple reads of a single sample as reported by the instrument.

HEWL amyloids = target: T2, HEWL amyloids (Gallus gallus, UniProt P00698); assay: Excitation and emission spectra of PEs with HEWL amyloids; type: binding, hen; conditions: PE 500 nM, HEWL amyloid 5 μM monomer basis
T2 construct: Lyophilized HEWL was dissolved at 10 mg/mL in 10 mM pH 3 sodium citrate buffer with 0.1 M NaCl; purchased Sigma-Aldrich; host or cells: hen egg white; fibrillised in house (pH 3, 70 °C, stirred)
Method: Excitation and emission spectra of PEs in phosphate buffer alone, with monomeric HEWL and with HEWL amyloids (8 h incubated) are shown in FIGS. 18A-H, and relevant photophysical properties are summarized in Table 1. FIGS. 18A-H illustrate excitation (A, B, C, D) and emission (right; E, F, G. H) spectra of PEs (A, E: PE1+; B, F: PE1−; C, G: PE2+; D, H: PE3+) in phosphate buffer (PB, pH 7.4, 10 mM) alone (long dashed line) with HEWL monomers (short dashed line) and with HEWL amyloids (solid line); PE concentration: 500 nM, protein concentration: 5 μM monomer basis/0.25 mg/mL; emission and excitation wavelengths, respectively, were chosen as shown in Table 1 for each sample. A 10:1 molar ratio of protein to PE was used for these experiments. Absorbance spectra were taken, but background light scattering from insoluble amyloid aggregates made them difficult to interpret, so “fluorescence detected absorbance” in the form of excitation spectra was used instead. Normalized excitation and emission spectra, in which peak shifts and lineshape changes of spectra were somewhat easier to visualize, were used. […] PE1+ (FIG. 18E) had no change in wavelength or lineshape of emission spectrum, just a large increase in intensity when mixed with amyloids. The excitation spectra (FIGS. 18A, B, C, D) show a notable bathochromic shift for each PE in solution mixed with amyloid, of 23, 27, 35 and 29 nm for PE1+, PE2+, PE3+ and PE1−, respectively, observing only the low-energy band. The high-energy band, less relevant for imaging purposes, was also bathochromically shifted. […] PE1− had similar excitation spectrum (FIG. 18B) with monomer and amyloid, except for a large intensity difference.
Lyophilized HEWL was dissolved at 10 mg/mL in 10 mM pH 3 sodium citrate buffer with 0.1 M NaCl. The solution was incubated in a 70C oil bath and magnetically stirred at 250 rpm for 12 h, and aliquots were withdrawn at half-hour intervals. […] Half of each aliquot was immediately diluted into pH 7.4 phosphate buffer to prevent further influence of acidic conditions and stored at 4C.
(§1) For studies of fluorescence enhancement vs. protein incubation time, dyes were mixed with protein sample in phosphate buffer (10 mM, pH 7.4) at equal monomer concentration of 10 μM in the wells of a standard 96-well plate. Emission spectra were obtained using top read with a SpectraMax M2e plate-reading spectrophotometer (Molecular Devices, Sunnyvale, CA). Experiments were performed in duplicate and errors are reported as standard deviation. For analysis of bound PE excitation and emission spectra and protein-PE energy transfer, PEs (500 nM) were mixed with protein sample (5 μM, monomer basis) in phosphate buffer and the solution transferred to a quartz, fluorometry cuvette. Spectra were obtained on a PTI QuantaMaster 40 steady state spectrofluorometer (HORIBA Scientific, Edison, NJ).

[1] = Photophysical properties of PEs alone (excitation/emission spectra, fluorescence yield); type: physicochemical; conditions: for λem (PB): phosphate buffer; for λex (PB), high-energy band / λex (PB), low-energy band: phosphate buffer pH 7.4, 10 mM, PE 500 nM
Method: Excitation and emission spectra of PEs in phosphate buffer alone, with monomeric HEWL and with HEWL amyloids (8 h incubated) are shown in FIGS. 18A-H, and relevant photophysical properties are summarized in Table 1. FIGS. 18A-H illustrate excitation (A, B, C, D) and emission (right; E, F, G. H) spectra of PEs (A, E: PE1+; B, F: PE1−; C, G: PE2+; D, H: […]) alone (long dashed line) with HEWL monomers (short dashed line) and with HEWL amyloids (solid line); PE concentration: 500 nM, protein concentration: 5 μM monomer basis/0.25 mg/mL; emission and excitation wavelengths, respectively, were chosen as shown in Table 1 for each sample. A 10:1 molar ratio of protein to PE was used for these experiments. Absorbance spectra were taken, but background light scattering from insoluble amyloid aggregates made them difficult to interpret, so “fluorescence detected absorbance” in the form of excitation spectra was used instead. Normalized excitation and emission spectra, in which peak shifts and lineshape changes of spectra were somewhat easier to visualize, were used. […] PE1+ (FIG. 18E) had no change in wavelength or lineshape of emission spectrum, just a large increase in intensity when mixed with amyloids. The excitation spectra (FIGS. 18A, B, C, D) show a notable bathochromic shift for each PE in solution mixed with amyloid, of 23, 27, 35 and 29 nm for PE1+, PE2+, PE3+ and PE1−, respectively, observing only the low-energy band. The high-energy band, less relevant for imaging purposes, was also bathochromically shifted. […] PE1− had similar excitation spectrum (FIG. 18B) with monomer and amyloid, except for a large intensity difference.
as §1

T2 sequence (P00698 19-147): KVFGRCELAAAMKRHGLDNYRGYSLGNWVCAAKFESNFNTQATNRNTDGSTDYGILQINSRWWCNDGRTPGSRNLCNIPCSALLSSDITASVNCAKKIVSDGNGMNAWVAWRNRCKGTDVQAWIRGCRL
T1 sequence (P00698 19-147): as above

## CCOC(=O)c1ccc(C#Cc2cc(OCC[N+](C)(C)C)c(C#Cc3ccc(C#Cc4cc(OCC[N+](C)(C)C)c(C#Cc5ccc(C(=O)OCC)cc5)cc4OCC[N+](C)(C)C)cc3)cc2OCC[N+](C)(C)C)cc1 [PE2+]
HEWL amyloid fibrils
  induced circular dichroism with HEWL amyloid: strong induced CD with a negative Cotton effect
HEWL amyloids
  bathochromic shift of excitation spectrum, low-energy band, with amyloid: 27 nm
  blueshifting of the fluorescence maximum with amyloid: ~10 nm
  λem (PB w/ HEWL): 445 nm
  λex (PB w/HEWL), high-energy band: 337 nm
  λex (PB w/HEWL), low-energy band: 426 nm
[1]
  λem (H2O): 448 nm
  φfl (H2O): 0.039
  φfl (MeOH): 0.71
  λem (PB): 460 nm
  λex (PB), high-energy band: 330 nm
  λex (PB), low-energy band: 399 nm

## CCOC(=O)c1ccc(C#Cc2cc(OCC[N+](C)(C)C)c(C#Cc3ccc(C#Cc4cc(OCC[N+](C)(C)C)c(C#Cc5ccc(C#Cc6cc(OCC[N+](C)(C)C)c(C#Cc7ccc(C(=O)OCC)cc7)cc6OCC[N+](C)(C)C)cc5)cc4OCC[N+](C)(C)C)cc3)cc2OCC[N+](C)(C)C)cc1 [PE3+]
HEWL amyloid fibrils
  induced circular dichroism with HEWL amyloid: strong induced CD with a negative Cotton effect
HEWL amyloids
  bathochromic shift of excitation spectrum, low-energy band, with amyloid: 35 nm
  blueshifting of the fluorescence maximum with amyloid: ~10 nm
  λem (PB w/ HEWL): 453 nm
  λex (PB w/HEWL), high-energy band: 335 nm
  λex (PB w/HEWL), low-energy band: 434 nm
[1]
  λem (H2O): 440 nm
  φfl (H2O): 0.069
  φfl (MeOH): 0.70
  λem (PB): 464 nm
  λex (PB), high-energy band: 340 nm
  λex (PB), low-energy band: 399 nm
